{
  "source": "ChEMBL document CHEMBL2074397",
  "about": "“Molecular cloning and functional expression of a multispecific organic anion transporter from human kidney” (Am J Physiol, 1999)",
  "key": {"[1]": {"target": "T1, Solute carrier family 22 member 6 (Homo sapiens, UniProt Q4U2R8)", "T1 sequence (Q4U2R8 whole entry)": "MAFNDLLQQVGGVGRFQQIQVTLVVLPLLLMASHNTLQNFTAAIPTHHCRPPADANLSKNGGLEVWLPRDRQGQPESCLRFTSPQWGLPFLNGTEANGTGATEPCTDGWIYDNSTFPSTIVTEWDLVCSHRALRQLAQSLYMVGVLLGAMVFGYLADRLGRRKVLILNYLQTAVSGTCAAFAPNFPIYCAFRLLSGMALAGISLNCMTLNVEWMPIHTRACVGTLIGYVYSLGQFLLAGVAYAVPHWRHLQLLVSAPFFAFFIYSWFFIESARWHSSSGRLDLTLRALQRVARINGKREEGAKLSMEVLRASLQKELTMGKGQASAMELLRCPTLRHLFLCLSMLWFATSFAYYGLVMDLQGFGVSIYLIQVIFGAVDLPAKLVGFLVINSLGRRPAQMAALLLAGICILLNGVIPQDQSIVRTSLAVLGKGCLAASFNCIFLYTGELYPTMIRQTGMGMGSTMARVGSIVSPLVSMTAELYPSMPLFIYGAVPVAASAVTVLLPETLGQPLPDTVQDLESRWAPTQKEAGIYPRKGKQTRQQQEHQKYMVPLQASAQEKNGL", "assay": "TP_TRANSPORTER: inhibition of PAH uptake (PAH: 2 uM, Indomethacin: 2000 uM) in Xenopus laevis oocytes", "assay_type": "functional, cell-based", "set-up": "scale not given: the % may be the effect or the level left", "details": "oocyte"}, "[2]": {"target": "T2, Solute carrier family 22 member 6 (SLC22A6) (Homo sapiens, UniProt Q4U2R8)", "T2 sequence (Q4U2R8 whole entry)": "T1 sequence (Q4U2R8 whole entry)", "assay": "TP_TRANSPORTER: inhibition of PAH uptake (PAH: 2 uM, Furosemide: 2000 uM) in Xenopus laevis oocytes", "assay_type": "functional, cell-based, Oocyte", "set-up": "scale not given: the % may be the effect or the level left", "details": "Xenopus laevis oocytes expressing SLC22A6, probe PAH, read-out: Activity"}, "[3]": {"target": "T1, Solute carrier family 22 member 6", "assay": "TP_TRANSPORTER: inhibition of PAH uptake (PAH: 2 uM, Urate: 2000 uM) in Xenopus laevis oocytes", "assay_type": "functional, cell-based", "details": "oocyte"}},
  "data": [
    {"smiles": "COc1ccc2c(c1)c(CC(=O)O)c(C)n2C(=O)c1ccc(Cl)cc1", "note": "[INDOMETHACIN]", "values": [
      {"measurement": "Activity", "setting": "[1]", "value": "< 0", "unit": "%"}
    ]},
    {"smiles": "NS(=O)(=O)c1cc(C(=O)O)c(NCc2ccco2)cc1Cl", "note": "[FUROSEMIDE]", "values": [
      {"measurement": "activity at 2000 µM", "setting": "[2]", "value": "< 0", "unit": "%"}
    ]},
    {"smiles": "O=c1[nH]c(=O)c2[nH]c(=O)[nH]c2[nH]1", "note": "[URIC ACID]", "values": [
      {"measurement": "Activity", "setting": "[3]", "value": "inhibitor [(at a rough estimate) 5 % of control]"}
    ]}
  ]
}
